Experimental data reported in patent US11603368B2, “Fused thiophene derivatives and their uses” (ENYO PHARMA, priority 2018, dated 2023).

What was measured:
[1] = target: T1, CISD3 Gene Product (Miner2) (Homo sapiens, UniProt P0C7P0); test: Stability of Fe—S cluster binding of purified NEET protein Miner2; format: biochemical; conditions: for Time (in minutes) to achieve 50% loss of bound cluster (Absorbance 458 nm), CISD3 Gene Product (Miner2) / Residual cluster bound at end of experiment (Percentage Absorbance 458 nm at time zero), CISD3 Gene Product (DMSO 11%): pH 6, 37° C., 1:3 protein:compound molar ratio; for Time (in minutes) to achieve 50% loss of bound cluster (Absorbance 458 nm), CISD3 Gene Product (Miner2): 6 μM compound, run time 180 minutes, Vehicle Control 60; for Residual cluster bound at end of experiment (Percentage Absorbance 458 nm at time zero), CISD3 Gene Product (DMSO 11%): end of 180 minutes, Vehicle Control 11%; for stabiliser or destabiliser of Fe—S cluster binding, CISD3 Gene Product (Miner2): time to 50% Fe—S cluster bound loss changed by more than 25% vs Control sample, at the concentrations tested
T1 sequence (P0C7P0 15-127): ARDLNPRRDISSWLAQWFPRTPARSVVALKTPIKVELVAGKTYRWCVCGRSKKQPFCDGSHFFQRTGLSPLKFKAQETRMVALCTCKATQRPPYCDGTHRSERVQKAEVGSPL
Protocol: (§1) The modulator effect on the NEET proteins encoded by human CISD1, CISD2, and CISD3 genes by the compounds of the invention has been tested and is reported below. Particularly, the biochemical function of the NEET proteins is measured by the stability of Fe—S cluster binding of the purified NEET proteins.
(§2) The Fe—S cluster binding capacity of NEET proteins is known to be coordinated by four amino-acids in a stretch of 16 (three Cysteine and one Histidine). As the lability of the Fe—S cluster of NEET proteins is sensitive to the environment, cluster stability measurements are one of the measures of interactions of NEET proteins with small molecules and compounds. NEET protein/2Fe-2S cluster stability can be assessed by monitoring the decay in absorbance of its characteristic 458-nm peak (characteristic of the oxidized 2Fe-2S cluster) over time. Each NEET protein (mitoNEET, NAF-1 and Miner 2) was tested for its Fe—S binding in the absence or presence of a compound according to the invention (see table 2 below). The rate of cluster release (time in minutes to achieve 50% loss of bound Fe—S cluster) was compared for each NEET protein in the presence of one of the compounds of the invention (in a 1:3 protein:compound molar ratio) relative to each protein alone.
(§3) At pH 6, all the three NEET proteins (mitoNEET, NAF-1 and Miner 2) have a characteristic rate of loss of the bound Fe—S cluster that can be measured by the decrease of absorbance at wavelength 458 nm over time, using a spectrophotometer. Thus, Bis-Tris buffer (100 mM Bis-Tris pH6, 100 mM Nacl) was used at pH 6 to dilute either DMSO (Blank sample: Bis-Tris Buffer pH 6, 6 μM DMSO), DMSO and one of the three NEET proteins (Control sample: Bis-Tris Buffer pH 6, 6 μM DMSO, 2 μM purified NEET protein) or DMSO, one of the three NEET proteins and a compound of the invention (Test sample: Bis-Tris Buffer pH 6, 6 μM DMSO, […], 6 μM compound of the invention).
(§4) A reaction mix containing DMSO diluted in the Bis-Tris Buffer with or without a compound of the invention was prepared. The purified NEET protein was the last component added to the reaction mix which was then aliquoted into 4 replicates in 96 wells plates. The absorbance at wavelength 458 nm was taken at 5 minutes intervals at 37° C. with a spectrofluorimeter. The assay run time for CISD2 gene product (NAF-1) was 500 minutes and 180 minutes for both the CISD 1 gene product (mitoNEET) and the CISD3 gene product (Miner 2).
(§5) In addition to time monitoring, residual bound Fe—S cluster to NEET protein was measured at the final point of the spectrometry assay for each Test sample and compared to the Control sample data (in parenthesis table 2). This residual binding is measured by the differential percentage between the absorbance 458 nm at time zero and the absorbance 458 nm at the end of the experiment (i.e. respectively 500 or 180 minutes as described hereabove), showing the percentage of NEET protein still able to bind a Fe—S cluster.
(§6) Analysis of the absorbance enables the time for which 50% loss of bound Fe—S cluster is reached (i.e. a 50% absorbance decrease at 458 nm) for each Test sample and each Control sample (in parenthesis table 2) to be determined. The data are then compared to determine whether the compound of the invention stabilizes or destabilizes the NEET protein/Fe—S cluster binding.

[2] = target: T2, CISD1 Gene Product (mitoNEET) (Homo sapiens, UniProt Q9NZ45); test: Stability of Fe—S cluster binding of purified NEET protein mitoNEET; format: biochemical; conditions: for Time (in minutes) to achieve 50% loss of bound cluster (Absorbance 458 nm), CISD1 Gene Product (mitoNEET) / Residual cluster bound at end of experiment (Percentage Absorbance 458 nm at time zero), CISD1 Gene Product (mitoNEET): pH 6, 37° C., 1:3 protein:compound molar ratio; for Time (in minutes) to achieve 50% loss of bound cluster (Absorbance 458 nm), CISD1 Gene Product (mitoNEET): 6 μM compound, run time 180 minutes, Vehicle Control 80; for Residual cluster bound at end of experiment (Percentage Absorbance 458 nm at time zero), CISD1 Gene Product (mitoNEET): end of 180 minutes, Vehicle Control 16%; for stabiliser or destabiliser of Fe—S cluster binding, CISD1 Gene Product (mitoNEET): time to 50% Fe—S cluster bound loss changed by more than 25% vs Control sample, at the concentrations tested
T2 sequence (Q9NZ45 33-108 limits assumed): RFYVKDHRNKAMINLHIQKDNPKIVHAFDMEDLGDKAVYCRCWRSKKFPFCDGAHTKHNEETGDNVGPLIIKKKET
Protocol: as §1, §2, §3, §4, §5, §6

[3] = target: T3, CISD2 Gene Product (NAF-1) (Homo sapiens, UniProt Q8N5K1); test: Stability of Fe—S cluster binding of purified NEET protein NAF-1; format: biochemical; conditions: for Time (in minutes) to achieve 50% loss of bound cluster (Absorbance 458 nm), CISD2 Gene Product (NAF-1) / Residual cluster bound at end of experiment (Percentage Absorbance 458 nm at time zero), CISD2 Gene Product (NAF-1): pH 6, 37° C., 1:3 protein:compound molar ratio; for Time (in minutes) to achieve 50% loss of bound cluster (Absorbance 458 nm), CISD2 Gene Product (NAF-1): 6 μM compound, run time 500 minutes, Vehicle Control 310; for Residual cluster bound at end of experiment (Percentage Absorbance 458 nm at time zero), CISD2 Gene Product (NAF-1): end of 500 minutes, Vehicle Control 3%; for stabiliser or destabiliser of Fe—S cluster binding, CISD2 Gene Product (NAF-1): time to 50% Fe—S cluster bound loss changed by more than 25% vs Control sample, at the concentrations tested
T3 sequence (Q8N5K1 57-135 limits assumed): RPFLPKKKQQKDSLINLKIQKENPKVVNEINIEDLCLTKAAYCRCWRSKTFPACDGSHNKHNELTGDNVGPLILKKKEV
Protocol: as §1, §2, §3, §4, §5, §6

[4] = test system: H1N1 (influenza A/New Caledonia/20/99); test: Antiviral effect on A549 cells infected with H1N1; format: cell-based, H1N1 A/New Caledonia/20/99 virus; conditions: Human A549 cells, MOI of 0.1, 48 h post-infection, MUNANA hydrolysis readout
Protocol: The antiviral effect of the compounds of the invention has been tested on A549 cell lines infected with H1N1 (influenza A/New Caledonia/20/99).
Human A549 cells (80,000 cells/well in a 96 well plate) were treated with a range of concentration of test molecules and immediately infected by H1N1 A/New Caledonia/20/99 virus (clinical isolate) at MOI of 0.1 in DMEM/1% Penicillin/streptomycin supplemented with 0.25 μg/ml TPCK trypsin (Sigma) and incubated at 37° C. in 5% CO2. 48 h post-infection, supernatants (25 μl) were collected and transferred into a 96-well black flat-bottom plate, mixed with 25 μl PBS with Ca++/Mg++(Thermo Fisher) and 50 μl of 2′-(4-Methylumbelliferyl)-α-D-N-acetylneuraminic acid sodium salt hydrate stock-solution (20 μM, MUNANA, Sigma). Plates were incubated 1 h at 37° C. and reaction is stopped by adding 100 μl of Stop Solution (glycine 0.1 M pH10.7/25% ethanol). The amount of fluorescent product released by MUNANA hydrolysis (4-MU) was measured in a Tecan spectrophotometer with excitation and emission wavelengths of 365 and 450 nm respectively.

[5] = Influenza A virus, H1N1, A549, 48 h

SMILES | Time (in minutes) to achieve 50% loss of bound cluster (Absorbance 458 nm), CISD3 Gene Product (Miner2) [1] | Residual cluster bound at end of experiment (Percentage Absorbance 458 nm at time zero), CISD3 Gene Product (DMSO 11%) [1] | Time (in minutes) to achieve 50% loss of bound cluster (Absorbance 458 nm), CISD1 Gene Product (mitoNEET) [2] | Residual cluster bound at end of experiment (Percentage Absorbance 458 nm at time zero), CISD1 Gene Product (mitoNEET) [2] | Time (in minutes) to achieve 50% loss of bound cluster (Absorbance 458 nm), CISD2 Gene Product (NAF-1) [3] | Residual cluster bound at end of experiment (Percentage Absorbance 458 nm at time zero), CISD2 Gene Product (NAF-1) [3] | IC50 [4, 5] | other results
COc1ccc(C(=O)Nc2sc3c(c2C(=O)O)CCN(c2ccc(F)cc2C)C3)cc1OC [#54] | 85 min | 41% | 105 min | 35% | 305 min | 31% | 60 nM | stabiliser or destabiliser of Fe—S cluster binding, CISD3 Gene Product (Miner2) [1]: Stabilisers; stabiliser or destabiliser of Fe—S cluster binding, CISD1 Gene Product (mitoNEET) [2]: stabilisers
O=C(Nc1sc2c(c1C(=O)O)C(c1ccccc1)CCC2)c1ccccc1 (stereo not drawn) [#112] | during 180 minutes | 64% | 100 min | 29% | 425 min | 23% | 1370 nM | stabiliser or destabiliser of Fe—S cluster binding, CISD3 Gene Product (Miner2) [1]: Stabilisers; stabiliser or destabiliser of Fe—S cluster binding, CISD1 Gene Product (mitoNEET) [2]: stabilisers; stabiliser or destabiliser of Fe—S cluster binding, CISD2 Gene Product (NAF-1) [3]: Stabilisers
CC1CCCc2sc(NC(=O)c3ccccc3)c(C(=O)O)c21 (stereo not drawn) [#74] | 65 min | 5% | 90 min | 0% | 390 min | 0% |  | stabiliser or destabiliser of Fe—S cluster binding, CISD2 Gene Product (NAF-1) [3]: Stabilisers; IC50 [4]: 182 nM
Cc1ccccc1C(=O)Nc1sc2c(c1C(=O)O)CCC(C(C)(C)C)C2 (stereo not drawn) [#82] | during 180 minutes | 64% | during 180 minutes | 60% | 265 min | 27% | 349 nM | stabiliser or destabiliser of Fe—S cluster binding, CISD3 Gene Product (Miner2) [1]: Stabilisers; stabiliser or destabiliser of Fe—S cluster binding, CISD1 Gene Product (mitoNEET) [2]: stabilisers
O=C(Nc1sc2c(c1C(=O)O)CCC(c1ccccc1)C2)c1ccccc1 (stereo not drawn) [#46] | 60 min | 13% | 80 min | 18% | 90 min | 14% |  | stabiliser or destabiliser of Fe—S cluster binding, CISD2 Gene Product (NAF-1) [3]: destabilisers; IC50 [4]: 150 nM
CC(C)(C)C1CCc2c(sc(NC(=O)C3CCCCC3)c2C(=O)O)C1 (stereo not drawn) [#115] | 65 min | 28% | 100 min | 34% | 240 min | 15% | 1470 nM | stabiliser or destabiliser of Fe—S cluster binding, CISD1 Gene Product (mitoNEET) [2]: stabilisers
CC1CCCCC1C(=O)Nc1sc2c(c1C(=O)O)CCC(C(C)(C)C)C2 (stereo not drawn) [#89] |  |  |  |  |  |  | 590 nM | 
COc1ccc(C(=O)Nc2sc3c(c2C(=O)O)CCC(C(C)(C)C)C3)cc1OC (stereo not drawn) [#3] |  |  |  |  |  |  | 55 nM | 
O=C(Nc1sc2c(c1C(=O)O)C1CCC2C1)c1ccccc1 (stereo not drawn) [#28] |  |  |  |  |  |  |  | IC50 [4]: 1270 nM
O=C(Nc1sc2c(c1C(=O)O)CCC2)c1ccccc1 [#210] |  |  |  |  |  |  | 817 nM | 
CC1CCCc2sc(NC(=O)c3cccc(OC(F)F)c3)c(C(=O)O)c21 (stereo not drawn) [#102] |  |  |  |  |  |  | 970 nM | 
O=C(Nc1sc2c(c1C(=O)O)CCC(c1ccccc1)C2)c1ccccc1 (stereo not drawn) [#47A] |  |  |  |  |  |  |  | IC50 [4]: 40 nM
Cc1ccccc1C(=O)Nc1sc2ccccc2c1C(=O)O [#128] |  |  |  |  |  |  | 5000 nM | 
COC1CN(c2ccc(C(=O)Nc3sc4c(c3C(=O)O)CCC4)cc2)C1 [#207] |  |  |  |  |  |  | 380 nM | 
CC(C)(C)C1CCc2c(sc(NC(=O)c3ccc(N4CCOCC4)cc3)c2C(=O)O)C1 (stereo not drawn) [#9] |  |  |  |  |  |  | 70 nM | 
Cc1ccccc1C(=O)Nc1sc2c(c1C(=O)O)CCC2 [#121] |  |  |  |  |  |  | 2350 nM | 
COc1cc(C(=O)Nc2sc3c(c2C(=O)O)CCC(C(C)(C)C)C3)cc(OC)c1OC (stereo not drawn) [#4] |  |  |  |  |  |  | 1070 nM | 
CC(C)(C)C1CCc2c(sc(NC(=O)c3ccc4c(c3)OC(F)(F)O4)c2C(=O)O)C1 (stereo not drawn) [#99] |  |  |  |  |  |  | 830 nM | 
COCCOc1ccc(C(=O)Nc2sc3c(c2C(=O)O)CCC(c2ccccc2)C3)cc1 (stereo not drawn) [#51] |  |  |  |  |  |  | 38 nM | 
COc1ccc(C(=O)Nc2sc3c(c2C(=O)O)C(C)CCC3)cc1OC (stereo not drawn) [#81] |  |  |  |  |  |  | 339 nM | 
